# In PMC9181543, “Lysosomal Exocytosis of Olivacine on the Way to Explain Drug Resistance in Cancer Cells” (International Journal of Molecular Sciences, 2022):
# Where “and” joins values, the source holds several entries; their conditions need not be identical. Equal entries are not always repeated. Where two headings read alike, the source gives them in different places.
# What was measured:
# [1] = test system: LoVo cells; assay: SRB assay (total protein content), LoVo; assay type: cell-based; conditions: Homo sapiens, 48 h incubation
# Experimental: The anticancer activity of tested compounds was assessed on five human cell lines selected from the panel of tumor cell lines recommended by the National Cancer Institute: A495 (lung carcinoma), CCRF/CEM (acute lymphoblastic leukemia), LoVo and LoVo/DX (two types of colorectal: non-resistant and resistant to doxorubicin), and MCF-7 (breast adenocarcinoma). In addition, the NHDF cell line (normal human dermal fibroblasts) was used to estimate cytotoxicity to noncancer cells. The A549, CCRF/CEM, LoVo, LoVo/DX, and MCF-7 cells were obtained from ECACC, and NHDF cells from LONZA, Belgium. The A549 and MCF-7 cells were grown in EMEM medium, CCRF/CEM cells in RPMI-1640, LoVo and LoVo/DX cells in DMEM/F-12, and NHDF cells in DMEM without phenol red. The cells were seeded in […] in the biological assay, as recommended by the National Cancer Institute. All culture media were supplemented with L-glutamine, penicillin, streptomycin, and 10% fetal bovine serum (FBS). Cells were incubated at 37 °C and 5% CO2. One of the most popular in vitro tests to evaluate the activity of compounds with potential antitumor activity is the SRB assay. The sulforhodamine B dye is used, which binds to the protein at the appropriate pH. The assay allows for assessing cell mass and, indirectly, their proliferation. The advantage of the assay is that it measures cellular protein content and not the activity of any enzymes. The SRB assay was carried out according to the National Cancer Institute procedure. Cells were incubated in a culture medium for 24 h in 96-well plates. After 24 h, the control plate for each cell line was fixed with TCA to evaluate cell culture before treatment with tested compounds. […] Cell cultures were then fixed by adding 50% TCA at 4 °C for 1 h. After removing the supernatant, the plates were washed with water and dried. […] Growth inhibition was calculated following the NCI guidelines and expressed as the GI50 ratio, i.e., the concentration of the compound in which the amount of protein was reduced by half compared with the control.
# [2] = test system: T24 cell; parameters: method as in PMID 28138703; conditions: T24 cell study; cited from earlier work
# [3] = test system: pancreatic cancer cells; parameters: method as in PMID 10737712; conditions: 1 μM; cited from earlier work
# [4] = test system: MV4–11 cells; parameters: method as in PMID 25107543; conditions: 5 μM; cited from earlier work
# [5] = test system: CCRF/CEM cells; parameters: method as in PMID 11755121; conditions: 48 h exposure; cited from earlier work
# [6] = test system: CCRF/CEM cells; parameters: method as in PMID 24898668; conditions: cited from earlier work
# [7] = test system: MCF-7 cells; parameters: method as in PMID 11755121; conditions: 48 h exposure; cited from earlier work
# [8] = test system: MCF-7 cells; parameters: method as in PMID 15896464; conditions: cited from earlier work
# [9] = test system: Saos-2 cells; parameters: method as in PMID 12881704; conditions: cited from earlier work
# [10] = test system: A549 cells; assay: SRB assay (total protein content), A549; assay type: cell-based; conditions: Homo sapiens, 48 h incubation
# Experimental: The anticancer activity of tested compounds was assessed on five human cell lines selected from the panel of tumor cell lines recommended by the National Cancer Institute: A495 (lung carcinoma), CCRF/CEM (acute lymphoblastic leukemia), LoVo and LoVo/DX (two types of colorectal: non-resistant and resistant to doxorubicin), and MCF-7 (breast adenocarcinoma). In addition, the NHDF cell line (normal human dermal fibroblasts) was used to estimate cytotoxicity to noncancer cells. The A549, CCRF/CEM, LoVo, LoVo/DX, and MCF-7 cells were obtained from ECACC, and NHDF cells from LONZA, Belgium. The A549 and MCF-7 cells were grown in EMEM medium, CCRF/CEM cells in RPMI-1640, LoVo and LoVo/DX cells in DMEM/F-12, and NHDF cells in DMEM without phenol red. The cells were seeded in […] in the biological assay, as recommended by the National Cancer Institute. All culture media were supplemented with L-glutamine, penicillin, streptomycin, and 10% fetal bovine serum (FBS). Cells were incubated at 37 °C and 5% CO2. One of the most popular in vitro tests to evaluate the activity of compounds with potential antitumor activity is the SRB assay. […] Growth inhibition was calculated following the NCI guidelines and expressed as the GI50 ratio, i.e., the concentration of the compound in which the amount of protein was reduced by half compared with the control.
# [11] = test system: CCRF/CEM cells; assay: Rate of apoptosis (annexin V/PI, Tali Apoptosis Kit); assay type: cell-based, human; conditions: 24 h incubation, tested 0.2, 0.5 and 1 μM
# Experimental: Apoptosis is a process of programmed cell death. After exposure to tested compounds, the apoptosis rate was measured using Tali Apoptosis Kit (Invitrogen, Thermo Fisher Scientific, Waltham, MA, USA). In the process of apoptosis, phosphatidylserine (PS) is transferred to the outer side of the cell membrane. The assay uses the ability of fluorophore-labeled annexin V to identify apoptotic cells by binding to exposed PS. The CCRF/CEM cells were incubated in RPMI-1640 medium in 24-well plates for 24 h (37 °C, 5% CO2). Then, tested compounds were added at three different concentrations (0.2, 0.5, and 1 μM) and incubated for 24 h. Negative control was the culture of cells not exposed to apoptosis-inducing factors. After incubation with tested compounds, the cells were harvested, centrifuged, and the supernatant removed. Cells were suspended in annexin V binding buffer (ABB), and Alexa Fluor 488 annexin V conjugate was added to each sample. The cells were then incubated for 20 min in the dark at RT, centrifuged, and resuspended in ABB with propidium iodide (PI). After 5 min incubation, the stained samples were transferred to Tali Cellular Analysis Slides and analyzed using an image-based cytometer Arthur (NanoEnTek Inc., Seoul, Korea).
# [12] = test system: NHDF cells; assay: Cell morphology, microscopic observation, NHDF; assay type: cell-based, human; conditions: NHDF normal cells, 24 h incubation
# Experimental: Olivacine, similar to ellipticine, is a compound with fluorescent properties. Therefore, by analyzing the intensity of fluorescence over time, it is possible to assess the cellular pharmacokinetics of the compounds. At the same time, cell morphology was also assessed. The cells were seeded into a 96-well plate and cultured for 24 h (37 °C, 5% CO2) for cell adhesion to the surface and regeneration. […] The culture plate was placed under a Juli microscope, and the device with the plate inside was put in the CO2 incubator. Pictures were taken every 15 min for 24 h. We have prepared software that allowed us to measure the fluorescence intensity of the indicated cells. Fluorescence analysis was performed for all images (every 15 min) during a period of rapid change in fluorescence intensity and less often at a later period when it stabilized. Three independent experiments were carried out, always analyzing 50 selected cells.
SMILES,GI50 [1] [µM],cell cycle effect [2],cell cycle effect [3],cell cycle effect [4],IC50 [5] [µM],cell cycle effect [6],IC50 [7] [µM],IC50 [8] [µM],concentration at which apoptosis was induced [9],GI50 [10] [µM],concentration at which apoptosis was induced [11] [µM],cell morphology ([12]; 2 μM),cell morphology ([12]; 5 μM),cell morphology ([12]; 20 μM)
Cc1c2ccncc2c(C)c2c1[nH]c1ccccc12 [Ellipticine],0.95 ± 0.25,stops the cell cycle in the G2/M phase,arrest cell cycle progression in both G1 and G2/M phases,arrest of the cell cycle at the G2/M checkpoint,4.7 ± 0.48,stop the cell cycle in the G0/G1 phase,1.25 ± 0.13,1.52,8 µM and 10 µM,0.72 ± 0.06,1,–,–,–
"Cc1nccc2c(C)c3[nH]c4ccccc4c3cc12 [Olivacine, 1,5-dimethyl-6H-pyrido[4,3-b]carbazole]",1.02 ± 0.21,–,–,–,–,–,–,–,–,0.93 ± 0.06,1,did not negatively affect cell morphology,normal,only a few fibroblast cells have been disintegrated
